According to patent US11926613B2, “Kinase inhibitors for the treatment of central and peripheral nervous system disorders” (UNIVERSITY OF MIAMI, priority 2017, dated 2024):

Tests used:
[1] = system: neurons from hippocampi of E18 rat embryos; test: Neurite growth length (% NTL) in cultured E18 rat hippocampal neurons, 9-point dose response, 48 hours; type: cell-based
Outline: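 Dissociated E18 rat hippocampal neurons at 1500 cells/well on PDL were exposed 48 h to 9 concentrations from 20 μM down to 0.078125 μM. After PFA fixation and βIII-tubulin/Hoechst staining, ArrayScan imaging traced neurites in at least 200–300 neurons per condition to give % NTL.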

[2] = system: corticospinal tract (CST) axons; test: Unilateral pyramidotomy model, in vivo axon growth (CST axon sprouting); conditions: mice, cortical injection, 2 mM final concentration, 5 weeks after unilateral pyramidotomy, N=2
Text: B) Graph represents averages of sprouting axon index across two animals treated with indicated compounds. Error bars indicate range of data points. N=2 animals (mice).
To assess the role of the compounds described herein in axon growth in vivo, the unilateral pyramidotomy model was employed, in which the pyramid in the ventral brainstem was severed unilaterally, rostral to the decussation of corticospinal tract (CST) axons. The animals then received bilateral cortical injections of a compound described herein (or DMSO) mixed 1:1 with AAV8-UbC-GFP or AAV8-UbC-TdTomato (5×10^13 GC/mL) for a final concentration of 2 mM (2 animals (mice) for each condition). […] Axon growth in the cervical spinal cord was assessed after 5 weeks. Cervical sections of the spinal cord were stained with antibodies against PKCγ (to assess completeness of lesion), and GFP (to amplify the signal from the virus). For analyses, GFP+ axons sprouting into the denervated gray matter were counted at 0, 500, 1000 μm lateral to the central canal, and normalized to the number of GFP+ fibers at the level of the brainstem (sprouting axon index).

[3] = system: Primary Neurons; test: HCS neurite outgrowth assay (High Content Screening with Primary Neurons); type: cell-based
[4] = system: primary CNS neurons; test: Neurite outgrowth in primary CNS neurons (FIG. 1, FIG. 2); type: cell-based; conditions: FIG. 2, combination of both inhibitors

COc1ccc(O)c(C(=O)c2ccc(C(=O)N[C@@H]3CNC[C@H]3NC(=O)c3ccncc3)cc2)c1F [Example A16, N-[(3R,4R)-4-[4-(2-fluoro-6-hydroxy-3-methoxybenzoyl)benzamido]pyrrolidin-3-yl]pyridine-4-carboxamide]
neurite growth length (% NTL) ([1]; 156 nM): 117.55 % NTL | neurite growth length (% NTL) ([1]; 312 nM): 125.17 % NTL | neurite growth length (% NTL) ([1]; 625 nM): 144.99 % NTL | neurite growth length (% NTL) ([1]; 1.25 μM): 167.31 % NTL | neurite growth length (% NTL) ([1]; 2.5 μM): 228.24 % NTL | neurite growth length (% NTL) ([1]; 5 μM): 403.74 % NTL | neurite growth length (% NTL) ([1]; 10 μM): 573.73 % NTL | neurite growth length (% NTL) ([1]; 20 μM): 660.88 % NTL | activity at 0.078 µM ([1]; Rattus norvegicus, Neuron, 48 h, 78 nM): 117% | CST axon sprouting (sprouting axon index) [2]: nearly a two-fold increase in sprouting | CST axon sprouting (sprouting axon index) ([2]; listed as A-16): promotes CST axon sprouting in the spinal cord | EC50 [3]: 5.5 µM

Cc1cncc2cccc(S(=O)(=O)N3CCCNC[C@@H]3C)c12 [Example H-1152]
neurite outgrowth, ROCK inhibitor and S6K inhibitor combined [4]: synergistically promotes neurite outgrowth

CCc1cncnc1N1CCN(Cc2nc3ccc(C(F)(F)F)cc3[nH]2)CC1 [PF-4708761]
neurite outgrowth, ROCK inhibitor and S6K inhibitor combined [4]: synergistically promotes neurite outgrowth
